The subject of test [1] is ribosome (eukaryotic peptidyl transferase / translocation) in reticulocyte lysate translation extract. Kind of test: RNA-peptide fusion formation (35S Met template labeling) with the long myc template in reticulocyte lysate translation extract, effect of inhibitors. It is filed as biochemical, rabbit. Particulars: long myc template (LP154), inhibitor concentration not given, 60 min. The text has this: To confirm that the template labeling by ^35 S Met was a consequence of translation, and more specifically resulted from the peptidyl transferase activity of the ribosome, the effect of various inhibitors on the labeling reaction was examined. The specific inhibitors of eukaryotic peptidyl transferase, anisomycin, gougerotin, and sparsomycin (Vazquez, Inhibitors of Protein Biosynthesis (Springer-Verlag, N.Y.), pp. 312 (1979)), as well as the translocation inhibitors cycloheximide and emetine (Vazquez, Inhibitors of Protein Biosynthesis (Springer-Verlag, N.Y.), pp. 312 (1979)) all decreased RNA-peptide fusion formation by ~95% using the long myc template and a reticulocyte lysate translation extract.
Reticulocyte Translation Reactions. Translation reactions were performed either with purchased kits (Novagen, Madison, Wis.) or using extract prepared according to published protocols (Jackson and Hunt, Meth. Enzymol. 96:50 (1983)). Reticulocyte-rich blood was obtained from Pel-Freez Biologicals (Rogers, […].). In both cases, the reaction conditions were those recommended for use with Red Nova Lysate (Novagen). Reactions consisted of 100 mM KCl, 0.5 mM MgOAc, 2 mM DTT, 20 mM HEPES pH 7.6, 8 mM creatine phosphate, 25 µM in each amino acid (with the exception of methionine if ^35 S Met was used), and 40% v/v of lysate. Incubation was at 30° C. for 1 hour. Template concentrations depended on the experiment but generally ranged from 50 nM to 1 μM with the exception of 43-P (FIG. 6H) which was 4 μM.

Another test has as its target ribosome A site. Conditions: binding the A site, accepting the growing peptide chain, and falling off the ribosome; cited from earlier work.

For `CSC[S@+]([O-])C[C@H](CO)NC(=O)/C=C/c1c(C)[nH]c(=O)[nH]c1=O` [sparsomycin], the “decrease of RNA-peptide fusion formation” value in test [1] is recorded as ~ 95%.

As to `COc1ccc(C[C@H]2NC[C@H](O)[C@H]2OC(C)=O)cc1` [anisomycin], in test [1], the “decrease of RNA-peptide fusion formation” value is ~ 95%.

`C[C@@H]1C[C@@H]([C@H](O)CC2CC(=O)NC(=O)C2)C(=O)[C@@H](C)C1` [cycloheximide]: in test [1], the “decrease of RNA-peptide fusion formation” value is ~ 95%.

`CNCC(=O)NC(CO)C(=O)NC1C(C(N)=O)OC(n2ccc(N)nc2=O)C(O)C1O` (stereo not drawn) [gougerotin]: the “decrease of RNA-peptide fusion formation” value in test [1] is given as ~ 95%.

In the case of `CC[C@H]1CN2CCc3cc(OC)c(OC)cc3[C@@H]2C[C@@H]1C[C@H]1NCCc2cc(OC)c(OC)cc21` [emetine], the “decrease of RNA-peptide fusion formation” value in test [1] is reported as ~ 95%.

For orientation: Kd means the concentration at which binding is half-saturated. For the molecule `COc1ccc(C[C@H](N)C(=O)N[C@H]2[C@@H](O)[C@H](n3cnc4c(N(C)C)ncnc43)O[C@@H]2CO)cc1` [puromycin], the Kd at ribosome A site is 100 µM.
